Measurements as given in patent publication US20230303712A1, “METHODS OF TREATING GLIOBLASTOMA” (Ramot at Tel-Aviv University Ltd., priority 2020, published 2023).
“Also recorded” adds a separate entry of the source.

Experiments:
primary human microglia [1] = test: Real-time PCR gene expression (ARG1, iNOS, IL-10, TGF-β) in microglia treated with rSELP; assay type: cell-based; settings: added on top of rSELP; SELPi 0.5 µM, antibodies 2.5 µg/ml, 48 h
Procedure: To evaluate microglial expression of IL-10 TGF-β, ARG1 and iNOS by primary human microglia (1 × 10^6 cells), cells were seeded in PLL-coated plates. Twenty-four hours post-seeding cells were treated with: 0% serum DMEM alone, or exposed to rSELP (1.5 µg/ml), or exposed to rSELP and SELPi (0.5 µM), or exposed to rSELP and anti-PSGL-1 neutralizing antibody (2.5 µg/ml), or exposed to rSELP and anti-CD44 neutralizing antibody (2.5 µg/ml), or exposed to rSELP and anti-CD24 neutralizing antibody (2.5 µg/ml) for 48 h.
Real-time PCR. The expression level of target genes was assessed by SYBR green real-time PCR (StepOne plus, Life Technologies) and normalized to GAPDH housekeeping gene. Primers used were: […]

primary human microglia [2] = test: Nitric oxide secretion evaluation; assay type: cell-based; settings: added to rSELP; SELPi 0.5 µM, antibodies 2.5 µg/ml, 24 h
Procedure: Nitric oxide secretion evaluation. Primary human/murine microglia (1 × 10^5 cells/ml) were seeded in PLL-coated plates. Twenty-four hours post-seeding, cells were treated with: 0% serum DMEM, 0% serum DMEM supplemented rSELP (1.5 µg/ml), 0% serum DMEM exposed to rSELP and SELPi (0.5 µM), 0% serum DMEM exposed to rSELP and anti-PSGL-1 neutralizing antibody (2.5 µg/ml), 0% serum DMEM exposed to rSELP and anti-CD44 neutralizing antibody (2.5 µg/ml), or 0% serum DMEM exposed to rSELP and anti-CD24 neutralizing antibody (2.5 µg/ml) for 24 h. Alternatively, macrophages were seeded in 96 well plates (5 × 10^5 cells/ml) treated with macrophages medium, macrophages medium supplemented with rSELP (3.5 µg/ml), macrophages medium supplemented with rSELP and SELPi (0.5 µM), macrophages medium supplemented with rSELP and anti-PSGL-1 neutralizing antibody (2.5 µg/ml), macrophages medium supplemented with rSELP and anti-CD44 neutralizing antibody (2.5 µg/ml) or macrophages medium supplemented with rSELP and anti-CD24 neutralizing antibody (2.5 µg/ml) for 24 h. Medium was then collected for evaluation of nitrite levels by the Total Nitric Oxide and Nitrate/Nitrite Parameter Assay Kit. Optical density was measured by a SpectraMax M5e multi-detection microplate reader system (Molecular Devices).

U251 tumors = test: SELPi treatment in human U251 GB model; assay type: in vivo, SCID mice
Procedure: SELPi (0.8 mg/ml) was dissolved in DMSO 0.01%), polyethyleneglycol (93.2 mg/ml), Tween-80 (14.8 mg/ml), and DDW. Mice were treated intravenously (IV) twice a week with PBS, 16 mg/kg SELPi or vehicle (0.01% DMSO, 93.2 mg/ml polyethyleneglycol and 14.8 mg/ml Tween-80 in DDW). Tumor development was followed by monitoring the fluorescence intensity using the CRI Maestro™ imaging system.
Intravital imaging. The CRI Maestro™ non-invasive fluorescence imaging system was used to follow tumor progression in mice bearing mCherry- or iRFP- labeled U251 tumors. Mice were anesthetized by ketamine (150 mg/kg) and xylazine (12 mg/kg) injected IP, and were placed inside the imaging system. Multispectral image-cubes were used through 550-800 nm spectral range in 10 nm steps using excitation (575-605 nm) and emission (645 nm longpass) filter set. Mice autofluorescence and background signals were eliminated by spectral analysis and by applying a linear unmixing algorithm.

P-Selectin = target: T1, P-Selectin (Homo sapiens, UniProt P16109); settings: cited from earlier work
T1 sequence (P16109 42-830): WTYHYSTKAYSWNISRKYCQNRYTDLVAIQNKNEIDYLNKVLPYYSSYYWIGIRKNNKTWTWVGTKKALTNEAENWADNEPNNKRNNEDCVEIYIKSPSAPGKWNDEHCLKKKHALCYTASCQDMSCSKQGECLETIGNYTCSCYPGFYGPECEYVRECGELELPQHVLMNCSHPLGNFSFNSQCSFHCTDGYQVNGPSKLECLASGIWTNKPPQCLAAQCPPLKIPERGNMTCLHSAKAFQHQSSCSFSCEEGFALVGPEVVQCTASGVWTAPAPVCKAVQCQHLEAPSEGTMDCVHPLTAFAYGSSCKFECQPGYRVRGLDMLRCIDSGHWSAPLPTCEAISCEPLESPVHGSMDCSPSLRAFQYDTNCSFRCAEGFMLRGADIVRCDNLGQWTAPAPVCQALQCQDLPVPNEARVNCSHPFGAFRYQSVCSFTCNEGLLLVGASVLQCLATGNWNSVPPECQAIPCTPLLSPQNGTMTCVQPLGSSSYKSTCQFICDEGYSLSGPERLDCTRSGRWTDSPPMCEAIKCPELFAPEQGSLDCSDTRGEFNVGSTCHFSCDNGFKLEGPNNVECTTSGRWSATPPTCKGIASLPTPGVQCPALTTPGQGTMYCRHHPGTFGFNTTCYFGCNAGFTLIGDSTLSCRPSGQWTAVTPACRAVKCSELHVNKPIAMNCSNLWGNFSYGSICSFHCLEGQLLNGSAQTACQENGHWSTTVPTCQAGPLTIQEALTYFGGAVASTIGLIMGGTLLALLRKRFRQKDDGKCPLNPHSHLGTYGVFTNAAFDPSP

Structure (SMILES): COc1ccc(C2CC(c3c(O)cc(C)oc3=O)=NCCS2)c(OC)c1 (stereo not drawn) [SELPi, 3-[7-(2,4-Dimethoxyphenyl)-2,3,6,7-tetrahydro-1,4-thiazepin-5-yl]-4-hydroxy-6-methyl-2H-pyran-2-one]
- rescue of rSELP effects on ARG1, iNOS, IL-10, TGF-β expression (primary human microglia [1]): rescue the effects of rSELP; also recorded: rescued rSELP effects
- restoration of NO levels (primary human microglia [2]): restored
- blood vessel density (CD31) (U251 tumors; U251 tumors): reduction
- invasion of GB cells (H&E) (U251 tumors; U251 tumors): reduced
- microglia activation (Iba1) (U251 tumors; U251 tumors): reduction
- proliferation of GB cells (Ki-67) (U251 tumors; U251 tumors): reduced
- tumor growth (fluorescence signal, CRI-Maestro) (U251 tumors; iRFP-labeled U251, 16 mg/kg SELPi IV twice a week): reduced the fluorescence signal; also recorded: delayed tumor growth
- IC50 (P-Selectin; P-Selectin inhibition): 1970 nM
- blocking of SELP-binding (P-Selectin; in vitro and in vivo): block SELP-binding
